The nature of data set [1]: Volatility of perfuming compounds (Tables 4 to 10), with top/middle/bottom note type. The data set is classed as physicochemical. An outline of the steps:
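Volatility is expressed in μg/l in air. Top notes are 70,000 to 100 μg/l, middle notes 99 to 50 μg/l, and bottom notes 49 to 0.1 μg/l. Compounds are grouped by olfactive family: watery, green, fruity, citrus, sweet, gourmand and woody.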

Data set [2] can be described thus: Odor threshold and odor value of perfuming compounds (Tables 4 to 10).
The mark [3] stands for this setting: Table 6, perfuming compounds having a fruity note.
Where [4] appears, read: Table 6, perfuming compounds having a fruity note, note type by volatility.
Where [5] appears, read: Table 7, citrus note, top, middle or bottom note.
Setting [6] is: Table 7, citrus note, equals volatility divided by odor threshold.
Setting [7] is: Table 10, perfuming compounds having a woody note, note type by volatility.
The mark [8] stands for this setting: Table 8, perfuming compounds having a sweet note.
Where [9] appears, read: Table 8, perfuming compounds having a sweet note, note type by volatility.
Setting [10] is: Table 9, perfuming compounds having a gourmand note, note type by volatility.
Setting [11] is: note type (Top/Middle/Bottom) by volatility, perfuming compounds having a green note.
The mark [12] stands for this setting: perfuming compounds having a green note.

In turn, `O=C(OCc1ccccc1)c1ccccc1` [BENZYL BENZOATE] displayed a Volatility in data set [1] (setting [3]) of 0.85 μg/l air. Also, the Type entry in data set [1] (setting [4]) and in data set [1] (setting [5]) was “Bottom” each time. Further, in data set [1] (Table 7, citrus note), the “Volatility (μg/l air)” value is listed as 0.85 μg/l air. Moreover, the “Odor Threshold” value in data set [2] (setting [3]) is 3.67E−02 μg/l air. In addition, the “Odor Value” in data set [2] (setting [3]) and in data set [2] (setting [6]) was 2.31E+01 each time. In addition, in data set [2] (Table 7, citrus note), the “Odor Threshold (μg/l air)” value was 3.67E−02 μg/l air.

Consider `C/C=C/C(=O)C1=C(C)CCCC1(C)C`, for which the Volatility in data set [1] (setting [3]) is on record as 81.66 μg/l air; in data set [1] (Table 10, woody note), 81.66 μg/l air. Besides, the Type result in data set [1] (setting [4]) and in data set [1] (setting [7]) was “Middle” in each case. Further, the “Odor Threshold” value in data set [2] (setting [3]) was 2.18E−04 μg/l air; in data set [2] (Table 10, woody note), 2.18E−04 μg/l air. Besides, the “Odor Value” in data set [2] (setting [3]) is recorded as 3.75E+05.

`CC(=O)CCC1=C(C)CCCC1(C)C`: the Volatility in data set [1] (setting [8]) was determined as 63.61 μg/l air; in data set [1] (Table 10, woody note), 63.61 μg/l air. The Type entry in data set [1] (setting [9]) and in data set [1] (setting [7]) was “Middle” in each case. For the same compound, the “Odor Threshold” value was 8.51E−03 μg/l air in data set [2] (setting [8]) and 8.51E−03 μg/l air in data set [2] (Table 10, woody note). In addition, the “Odor Value” in data set [2] (setting [8]) is given as 7.48E+03.

As for `C=C(C)CC(C)OC(=O)C(C)C` (racemic), the Volatility in data set [1] (setting [3]) is reported as 9902.98 μg/l air; in data set [1] (setting [8]) it was 9902.98 μg/l air; in data set [1] (Table 9, gourmand note) it was 9902.98 μg/l air. The Type result in data set [1] (setting [4]) is “TOP (perfuming compounds having a volatility ranging from 70,000 to 100 μg/l in air are referred to as “top notes”)”; in data set [1] (setting [9]), “Top”; in data set [1] (setting [10]), “Top”. Further, the “Odor Threshold” value worked out at 2.26E−01 μg/l air in data set [2] (setting [8]) and 2.26E−01 μg/l air in data set [2] (Table 9, gourmand note). Also, the “Odor Value” in data set [2] (setting [8]) is reported as 4.39E+04.

In turn, `C/C=C/c1ccc(OC(C)=O)c(OC)c1` [(E)-2-METHOXY-4-(1-PROPENYL)PHENYL ACETATE] showed a Volatility in data set [1] (setting [3]) of 1.85 μg/l air. The Type entry in data set [1] (setting [4]) and in data set [1] (setting [5]) was “Bottom” in each case. Further, in data set [1] (Table 7, citrus note), the “Volatility (μg/l air)” value turned out to be 1.85 μg/l air. In addition, the “Odor Threshold” value in data set [2] (setting [3]) is listed as 4.08E−07 μg/l air. In addition, the “Odor Value” in data set [2] (setting [3]) and in data set [2] (setting [6]) was 4.54E+06 each time. The “Odor Threshold (μg/l air)” value in data set [2] (Table 7, citrus note) came out at 4.08E−07 μg/l air.

In data set [1] (setting [3]), `CCC/C=C/COC(C)=O` [(E)-2-HEXENYL ACETATE] yielded a Volatility of 6062.68 μg/l air. Moreover, the Type result in data set [1] (setting [4]) is reported as “TOP (perfuming compounds having a volatility ranging from 70,000 to 100 μg/l in air are referred to as “top notes”)”; in data set [1] (setting [11]), “Top”. Also, the “Volatility (μg/l air)” value in data set [1] (setting [12]) is given as 6062.68 μg/l air. Further, the “Odor Threshold (μg/l air)” value in data set [2] (setting [12]) turned out to be 2.08E−01 μg/l air.

For the compound `CCCCCC/C=C/C(=O)OC` [methyl (2E)-2-nonenoate], the Volatility in data set [1] (setting [3]) was 264.84 μg/l air. For the same compound, the Type result in data set [1] (setting [4]) is “TOP (perfuming compounds having a volatility ranging from 70,000 to 100 μg/l in air are referred to as “top notes”)”; in data set [1] (setting [11]), “Top”. Besides, the “Volatility (μg/l air)” value in data set [1] (setting [12]) came out at 264.84 μg/l air. For the same compound, the “Odor Threshold (μg/l air)” value in data set [2] (setting [12]) was 5.84E−02 μg/l air.

As for `CC(=O)O[C@@H]1CC2CC[C@]1(C)C2(C)C`, the Type entry in data set [1] (setting [7]) is recorded as “Top”. Further, the Volatility in data set [1] (Table 10, woody note) is reported as 735.37 μg/l air. In addition, the “Odor Threshold” value in data set [2] (Table 10, woody note) is 4.46E−02 μg/l air.

As to `CC(C)(C)C(=O)OCCc1ccccc1` [2-PHENYLETHYL PIVALATE], the Volatility amounted to 71.44 μg/l air in data set [1] (setting [3]); 71.44 μg/l air in data set [1] (setting [8]); 71.44 μg/l air in data set [1] (Table 9, gourmand note). Besides, the Type result in data set [1] (setting [4]), in data set [1] (setting [9]) and in data set [1] (setting [10]) was “Middle” throughout. Also, the “Odor Threshold” value in data set [2] (setting [3]) was 3.85E−02 μg/l air; in data set [2] (setting [8]) it was 3.85E−02 μg/l air; in data set [2] (Table 9, gourmand note), 3.85E−02 μg/l air. The “Odor Value” in data set [2] (setting [3]) and in data set [2] (setting [8]) was 1.86E+03 each time.

The record behind these values is US20240301319A1, “PERFUMING COMPOSITIONS” (FIRMNICH SA, priority 2017, published 2024).
